Like-named read-outs stand apart in the source and are kept apart here. One block for each compound: values may come before it.
Legend:
human NUDT5 = molecular target: T1, human NUDT5 (Homo sapiens, UniProt Q9UKK9); experiment: enzyme-coupled malachite green assay (MG assay), ADPR hydrolysis; type: biochemical; details: for IC50: NUDT5, ADPR substrate
T1 construct: His-tag (N); made in house; host or cells: E. coli BL21 (DE3) R3 pRARE2
Source text: We next sought to develop small molecule NUDT5 inhibitors to further probe the role of NUDT5 in ADPR metabolism. A high-throughput, screening-compatible NUDT5 inhibition assay was established using slight modifications to the aforementioned MG procedure (Fig. 2a)[15],[27]. Briefly, ADPR, NUDT5 and calf intestinal alkaline phosphatase (CIP) were combined in a coupled enzymatic assay, as described in the online methods. In turn, ADPR was hydrolyzed to AMP and R5P by NUDT5, and the released R5P was further degraded to ribose and inorganic phosphate (Pi) by CIP. Free Pi was subsequently detected using the malachite green reagent. The screen was conducted using a combination of the Chemical Biology Consortium of Sweden (CBCS) primary screening set and several commercial libraries from Enamine, TimTec, Maybridge and ChemDiv. In total, ~72 000 distinct chemical entities were screened for their potential inhibition of NUDT5 at a concentration of 10 µM (Supplementary Table 1, Supplementary Fig. 2a, b). Execution of this screening campaign was split between two different occasions. The screening performance in the two screening campaigns was excellent (average z´ factors of 0.87 and 0.85, Supplementary Fig. 2c), resulting in a hit limit as defined by the average and three standard deviations of the library compound responses of 10.1 and 18.4% inhibition, respectively (Supplementary Table 1, Supplementary Fig. 2a, b). This translated to 53 and 475 hits (0.3 and 0.8% hit rate, respectively), yielding 528 total hits from the 2 separate screening occasions.
Activity of NUDT5 and MTH1 with a panel of potential substrates [2-OH-ATP, 2-OH-dATP, 8-oxo-dGDP, GDP and 8-oxo-GTP (Jena Biosciences), 8-oxo-dGTP (TriLink Biotechnologies), dATP (ThermoFisher Scientific), dGTP, GTP and ADPR (Sigma-Aldrich)] was assessed in reaction buffer (100 mM Tris Acetate pH 7.5, 40 mM NaCl, 10 mM Mg Acetate) at 22 °C. For ADPR, alkaline phosphatase from bovine intestinal mucosa (10 U/ml; Sigma-Aldrich) was added as coupled enzyme, while other substrates were coupled to E. coli pyrophosphatase (0.2 U/mL, Sigma-Aldrich). After 30 min incubation with shaking, formed inorganic phosphate was detected by addition of malachite green reagent. Absorbance at 630 nm was read after 15 min incubation with shaking using a Hidex Sense plate reader. The potency of NUDT5 inhibitors was assessed similarly as above (and in the screening campaign) by monitoring ADPR hydrolysis; details are in the Supplementary Information.
Small molecule library composition
The screen for NUDT5 inhibitors was conducted at Chemical Biology Consortium Sweden (www.cbcs.se). Two screening campaigns completed in August 2012 and in March 2013 respectively comprised a combination of in-house and commercially available libraries, amounting to a total of 75679 compounds. The commercial compounds originate from Enamine, TimTec, MayBridge and ChemDiv. The in-house libraries were donated by Biovitrum AB, Sweden (the origin and composition is described previously)2. For long-term storage, the compounds are kept frozen at - 20°C as 10 mM solutions in dimethyl sulfoxide (DMSO) under low humidity conditions in REMP 96 Storage Tube Racks in a REMP Small-Size Store™. To facilitate screening an aliquot of the stock solutions have been transferred to Labcyte 384 LDV plates (LP-0200) to enable dispensing using an Echo 550™ acoustic liquid handler (LabCyte). For both screening campaigns 40 nl of the compound solutions were dispensed directly into columns 1-22 of the 384-well assay plates (Nunc 242757), while columns 23 and 24 were reserved for controls as outlined below. The plates were sealed with a Peelable Aluminium seal (Agilent 24210-001) using a PlateLoc thermal microplate sealer (Agilent) and kept at room temperature until used. The final compound concentration in the screen was 10 µM with a final DMSO concentration of […]
Enzymatic assay applied for screening and hit confirmation […]

[1] = molecular target: T2, NUDT5 in HL-60 cell lysates (Homo sapiens, UniProt Q9UKK9); experiment: cell lysate CETSA (HT-CETSA); type: binding; details: 20 µM, 83 °C
T2 construct: endogenous in cells; host or cells: HL-60
Protocol: Target engagement in cells was determined by the cellular thermal shift assay (CETSA)[29]. Briefly, cell lysate thermal shift assays were performed with 1 × 10^6 HL-60 cells per temperature/condition. Cells were collected and washed once with PBS and resuspended in TBS with protease inhibitor cocktail (Mini cOmplete, EDTA-free, Roche) at 60 µL/1 × 10^6 cells. The cells were then aliquoted and lysed by freeze-thawing three times with 3-min incubations (3x, 3 min.+3 min.) using an ethanol/dry ice bath and water bath at 37 °C. The lysates were then centrifuged at 20,000×g for 20 min at 4 °C to remove cellular debris. Supernatants were then transferred to PCR strip tubes and treated with 0.5 µL DMSO (0.8% v/v final) or 20 µM inhibitor for 20 min at room temperature. Lysates with compounds were heated at the indicated temperature in a Veriti Thermal Cycler (Applied Biosystems) for 3 min, then cooled for another 3 min at room temperature. They were then centrifuged at 20 000 × g for 20 min at 4 °C to pellet protein aggregates and 45 µL was removed and prepared for western blotting analysis.

[2] = molecular target: T3, NUDT5 in intact HL-60 cells (Homo sapiens, UniProt Q9UKK9); experiment: intact cell CETSA; type: cell-based; details: 20 µM, 83 °C
T3 construct: endogenous in cells; host or cells: HL-60
Protocol: For CETSA experiments with cells treated in culture, 1 × 10^6 HL-60 were treated with DMSO (0.1 % v/v final) or 20 µM compound for 3 h at 37 °C and 5% CO2 in a humidified incubator. T47D^WT cells were treated instead with 80 µM TH1659, 15 µM TH5423/5424 and 1.5 µM TH5427. The cells were harvested, washed twice with PBS and resuspended in TBS with protease inhibitors, as above. Heating was identical as before, except that immediately following heating, the cell suspensions were snap frozen in a dry ice/ethanol bath and freeze-thawed, as previously, to lyse cells. Centrifugation at 20 000 × g for 20 min at 4 °C removed cellular debris and protein aggregates, and lysates were prepared for western blotting.

purified NUDT5 = molecular target: T4, purified NUDT5 (Homo sapiens, UniProt Q9UKK9); experiment: differential scanning fluorimetry (DSF); type: binding; details: 20 µM compound; for Tm: DMSO 74; for ΔTm at 20 µM: read-out: shift in melting temperature (Tm)
T4 construct: His-tag (N); made in house; host or cells: E. coli BL21 (DE3) R3 pRARE2
Protocol: Differential scanning fluorimetry (DSF)[5],[47] was performed with 5 µM purified NUDT5, 20 µM NUDT5 inhibitor and 5x Sypro Orange added per well added to a 96-well PCR plate. Each experiment was performed in duplicate. Temperature gradients from 25 to 95 °C (increasing at a rate of 1 °C per minute) were completed with readings every minute on a CFX96 Real-Time PCR machine (Bio-Rad). Melting temperatures were determined as the minimum of the negative first derivative plots with CFX Maestro software (Bio-Rad).

solubility = type: physicochemical
[3] = read-out: MG assay IC50 (Biochemical IC50)

SMILES: O=c1cc(-c2ccccc2)oc2ccccc12 [flavone, reference compound]
IC50 (human NUDT5; read-out: MG assay IC50): > 100 µM

SMILES: COc1ccc2c(c[n+](C)c3c4cc5c(cc4ccc23)OCO5)c1OC [chelerythrine, reference compound]
IC50 (human NUDT5; read-out: MG assay IC50): > 100 µM

SMILES: O=C(O)/C=C/c1ccc(O)cc1 [p-coumaric acid, reference compound]
IC50 (human NUDT5; read-out: MG assay IC50): > 100 µM

Continued, in another order:

IC50 (human NUDT5; read-out: MG assay IC50): 0.58 µM
SMILES: Cc1cccc(-c2nnc(Cn3cnc4c3c(=O)n(C)c(=O)n4C)o2)c1 [TH1167]
NUDT5 stabilization in cell lysates [1]: did not show sufficient target engagement
NUDT5 stabilization in intact cells [2]: did not show sufficient target engagement

IC50 (human NUDT5; read-out: MG assay IC50): > 100 µM
SMILES: O=c1cc(N2CCOCC2)oc2c(-c3ccccc3)cccc12 [LY294002, reference compound]

MG assay potency compared with TH1713 (human NUDT5): equipotent with TH1713
IC50 (human NUDT5; [3]): 0.07 µM
Tm (purified NUDT5): 79 °C
ΔTm at 20 µM (purified NUDT5): 5 °C
NUDT5 stabilization in intact cells [2]: showed activity by CETSA in intact cells
solubility (solubility): very poor solubility
SMILES: Cn1c(=O)c2c(ncn2Cc2nnc(-c3ccc(Cl)c(Cl)c3)o2)n(C)c1=O [TH1533]

fold greater potency over TH1167 (human NUDT5; MG assay): more than 8 fold
IC50 (human NUDT5; [3]): 0.07 µM
Tm (purified NUDT5): 79 °C
ΔTm at 20 µM (purified NUDT5): 5 °C
solubility (solubility): very poor solubility
SMILES: Cc1cccc(-c2nnc(Cn3c(N(C)C)nc4c3c(=O)n(C)c(=O)n4C)o2)c1 [TH1713]
NUDT5 stabilization in intact cells [2]: only TH1533 showed activity by CETSA in intact cells

— article PMC5772648, “Targeted NUDT5 inhibitors block hormone signaling in breast cancer cells” (Nature Communications, 2018)
